Source: patent US7763615B2, “Ecteinascidin analogs for use as antitumour agents” (priority 2001, dated 2010)
≈ marks a conversion by molar mass, not a printed value. Like-named read-outs stand apart in the source and are kept apart here.

How the values were obtained:
physchem [1] = conditions: pH 7.4, aqueous buffer, Solubility Dulbecco's PBS pH 7.4
physchem [2] = conditions: pH 7.4, log D n-Octanol-Dulbecco's PBS pH 7.4
[3] = tested on: AML-12, normal mouse liver cells; conditions: 24 h
Description: (§2) In order to assess the cytotoxicity of the drugs to normal cells, we used 96 well plates plated at a density of 5000 cells per well (except for the FDC-P1 which were plated at 12,000 cells per well) with normal cell lines (ATCC, Table 1) maintained as per the directions of the ATCC: AML-12, normal mouse liver cells; NRK-52E, normal rat kidney cells; L8, normal rat skeletal muscle cells; FDC-P1, normal mouse myelogeous stem cells; and H9c2 (2-1), normal rat cardiac muscle cells. The cells in each plate were permitted to settle overnight before adding the test drug.
(§3) To each well (100 μl medium) 10 μl of drug in media was added at varying concentrations (1×10-10-0.01 mg/ml final concentration) and further incubated overnight at 37° C. with 5% CO2. After 24 h the following assays were performed. All experiments were repeated at least 3 times and were assayed in duplicate.
(§4) MTS assay (CellTiter 96 aqueous) was performed according to the manufacturer's (Promega) directions (for all cell types). Cell viability (mitochondrial activity) is determined via enzymatic conversion of the formazan substrate.

[4] = tested on: NRK-52E, normal rat kidney cells; conditions: 24 h
[5] = tested on: L8, normal rat skeletal muscle cells; conditions: 24 h
Description: as §2, §3, §4

[6] = s9, 60 min, 1 μM
Description: The metabolic stability was determined used human liver S9 homogenate that including both microsomal and cytosolic enzyme activities. The test compound was diluted in methanol (0.625%) and acetonitrile (0.625%) at the concentration 1 μM and incubated in the human liver pool (protein=1 mg/mL) during 60 min at 37° C. Peak areas corresponding to all analytes (metabolic products) were determined by HPLC-MS/MS. Areas were recorded and ratios of peak areas of analytes to that of internal standard for each analyte were determined. The ratio of precursor compound remaining after 60 minutes and the amount remaining at time zero, expressed as percent, are reported as metabolic stability. Higher values mean higher metabolic stability.

(HEPG2) = conditions: human, 24 h, 30 μM
CYP2D6 = CYP2D6 (Homo sapiens, UniProt P10635); experiment: in vitro; conditions: CYP2D6 (% inhibition)
Chain of CYP2D6 (P10635 whole entry): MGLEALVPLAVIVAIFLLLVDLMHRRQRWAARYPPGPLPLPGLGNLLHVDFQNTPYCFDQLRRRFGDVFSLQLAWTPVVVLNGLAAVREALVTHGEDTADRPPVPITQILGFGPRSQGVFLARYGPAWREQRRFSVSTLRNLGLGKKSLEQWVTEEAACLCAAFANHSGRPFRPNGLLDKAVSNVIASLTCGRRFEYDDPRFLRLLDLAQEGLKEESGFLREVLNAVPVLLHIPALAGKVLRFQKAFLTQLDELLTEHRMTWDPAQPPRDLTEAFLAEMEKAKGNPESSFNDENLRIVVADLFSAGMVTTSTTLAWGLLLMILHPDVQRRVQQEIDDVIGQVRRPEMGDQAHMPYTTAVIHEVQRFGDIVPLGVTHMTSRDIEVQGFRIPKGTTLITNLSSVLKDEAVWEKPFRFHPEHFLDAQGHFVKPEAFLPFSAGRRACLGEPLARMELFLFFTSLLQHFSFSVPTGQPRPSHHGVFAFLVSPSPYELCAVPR
Description: For CYP2D6 inhibition assay, the compound are tested at 10 μM in duplicate with a 0.25% final concentration of both methanol and acetonitrile in presence of the fluorescent substrate AMMC (3-[2-N,N-diethyl-N-methylammonium)ethyl]-7-methoxy-4-methylcoumarin) at the concentration of 1.5 μM). The conversion of the AMMC in AHMC (3-[2-N,N-diethyl-N-methylammonium)ethyl]-7-hydroxy-4-methylcoumarin) is determined spectrofluorimetry after incubation with the enzyme during 450 min at 37° C.
For both assays, the fluorescent intensity measured at t=0 is subtracted from that measured after the appropriate incubation time. The ratio of signal-to-noise is calculated by comparing the fluorescence in incubations containing the test compound to the control samples containing the same solvent vehicle. The percent of control activity is calculated and reported as percent inhibition.

CYP3A4 = CYP3A4 (Homo sapiens, UniProt P08684); experiment: in vitro; conditions: CYP3A4 (% inhibition)
Chain of CYP3A4 (P08684 whole entry): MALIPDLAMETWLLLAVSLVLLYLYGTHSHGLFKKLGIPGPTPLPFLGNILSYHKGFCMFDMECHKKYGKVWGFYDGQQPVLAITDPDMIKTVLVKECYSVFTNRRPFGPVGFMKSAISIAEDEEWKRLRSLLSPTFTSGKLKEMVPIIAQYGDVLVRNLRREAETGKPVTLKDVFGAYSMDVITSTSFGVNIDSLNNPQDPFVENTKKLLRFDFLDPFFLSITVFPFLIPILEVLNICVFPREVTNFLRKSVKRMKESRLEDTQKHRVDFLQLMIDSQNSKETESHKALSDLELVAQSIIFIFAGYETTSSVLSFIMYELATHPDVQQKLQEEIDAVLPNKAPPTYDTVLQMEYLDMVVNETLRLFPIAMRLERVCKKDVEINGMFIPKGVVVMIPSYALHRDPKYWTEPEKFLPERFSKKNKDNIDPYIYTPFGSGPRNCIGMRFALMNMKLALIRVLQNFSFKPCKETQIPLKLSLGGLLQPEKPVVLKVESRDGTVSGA

MEL-28 = experiment: cells; format: cell-based; conditions: Homo sapiens, SK-MEL-28, 48 h; for GI50 / IC (TGI): MEL-28, 48 hours exposure, SRB; for CC50: read-out: LC50, MEL-28, 48 hours exposure, SRB
How it was run: (§1)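 Continuous 48 h drug exposure of attached human cancer cells (5×10^3/well, RPMI 1640, 10% FBS), doses 10 to 10^−8 μg/ml. Endpoint is SRB staining after TCA fixation, read at 490 nm. GI, TGI and LC calculated from triplicate means.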

SW-620 = experiment: cells; format: cell-based; conditions: Homo sapiens; for CC50: SW-620, 48 h, read-out: LC50; for IC (TGI) / GI50: SW-620, 48 hours exposure, SRB; for GI50: read-out: GI50
How it was run: as §1

A549 = experiment: cells; format: cell-based; conditions: Homo sapiens, A549, 48 h; for IC (TGI): read-out: TGI; for CC50: read-out: LC50, A549, 48 hours exposure, SRB
How it was run: as §1

MCF = experiment: cells; format: cell-based; conditions: Homo sapiens; for CC50: 48 h, read-out: LC50; for GI50 / IC (TGI): MCF, 48 hours exposure, SRB; for IC (TGI): read-out: TGI
How it was run: as §1

MB231 = experiment: cells; format: cell-based; conditions: Homo sapiens; for CC50: read-out: LC50; for IC (TGI): read-out: TGI
How it was run: as §1

HT29 = experiment: cells; format: cell-based; conditions: Homo sapiens, HT-29, 48 h; for GI50 / IC (TGI): HT29, 48 hours exposure, SRB; for CC50: read-out: LC50, HT29, 48 hours exposure, SRB
How it was run: as §1

DU145 = experiment: cells; format: cell-based; conditions: Homo sapiens, DU-145, 48 h; for GI50 / IC (TGI): DU145, 48 hours exposure, SRB; for CC50: read-out: LC50, DU145, 48 hours exposure, SRB
How it was run: as §1

A498 = experiment: cells; format: cell-based; conditions: Homo sapiens; for CC50: A498, 48 h, read-out: LC50; for GI50 / IC (TGI): A498, 48 hours exposure, SRB
How it was run: as §1

[7] = tested on: H9c2 (2-1), normal rat cardiac muscle cells; conditions: 24 h
[8] = tested on: FDC-P1, normal mouse myelogeous stem cells; conditions: 24 h
in vitro = conditions: human, Caco-2
Excerpt: The intestinal epithelium permeability is a critical characteristic that determines the rate and extent of human absorption and ultimately the bioavailability of a drug candidate. Caco-2 permeability assay allows a rapid assessment of membrane permeability and thus helps to rank-order compounds in terms of their absorption potential.
The Caco-2 cell line is a human colon adenocarcinoma cell line that differentiates in culture and resembles the epithelial lining of the human small intestine.
The apparent permeability coefficients (Papp) was determined in the apical-to-basolateral (A-to-B) direction across the cell monolayers (TC-7 sub-clone of the Caco-2) cultured on polycarbonate membrane filters. Compounds were tested at 50 μM with at a final DMSO concentration of 1%. Samples were analyzed by HPLC-MS or HPLC-MS/MS.
The test compound was added to the apical side and the Papp was determined based on the rate of appearance of the test compound in the basolateral side after 2 h-incubation. Two reference compounds, propranolol (highly permeable) and ranitidine (poorly permeable), are tested in each assay as controls.

[9] = A549, 48 hours exposure, SRB, read-out: GI50

Row | SMILES | solubility (physchem [1]) [µM] | logD at 60 min (physchem [2]) | Liver [3] | Kidney [4] | Skeletal [5] | Human Liver S9 Metabolic Stability (% remaining) [6] [% remaining] | Cell Viability (% inhibition) ((HEPG2)) | inhibition at 30 min, 10 µM (CYP3A4) [%] | GI50 (MEL-28) [nM] | IC (TGI) (MEL-28) [nM] | CC50 (MEL-28) [nM] | CC50 (SW-620) [nM] | IC (TGI) (SW-620) [nM] | GI50 (SW-620) [nM] | IC (TGI) (A549; A549, 48 hours exposure, SRB) [nM] | CC50 (A549) [nM] | CC50 (MCF) [nM] | GI50 (MCF) [nM] | IC (TGI) (MCF) [nM] | CC50 (MB231; 48 h) [nM] | other results
1 | COc1c(C)cc2c(c1O)[C@@H]1C3[C@@H]4SC[C@]5(NCCc6c5[nH]c5c(OCc7ccccc7)cccc65)C(=O)COC[C@@H](c5c6c(c(C)c(OC(C)=O)c54)OCO6)N3[C@@H](O)[C@H](C2)N1C (stereo partly shown) [Compound 28] | < 1 | > 4.6 | 1.42E−07 | 8.37E−08 | 1.45E−07 | 33 | 17 | 79 | 23.2 | 34.8 | 81.3 | 92.9 | 23.2 | 6.97 | 46.5 | 34.8 | 116 | 5.81 | 23.2 | 116 | inhibition at 450 min, 10 µM (CYP2D6): 34%; GI50 (A549; [9]): 3.48 nM; IC (TGI) (MB231; 48 h): 9.29 nM; GI50 (MB231; MB231, 48 hours exposure, SRB): 3.48 nM; GI50 (HT29): 11.6 nM; IC (TGI) (HT29): 69.7 nM; CC50 (HT29): 105 nM; GI50 (DU145): 2.32 nM; IC (TGI) (DU145): 3.48 nM; CC50 (DU145): 9.29 nM; CC50 (A498): 58.1 nM; GI50 (A498): 3.48 nM; IC (TGI) (A498): 11.6 nM; Heart [7]: 1.84E−07; Myelo [8]: 2.00E−07
2 | COc1c(C)cc2c(c1O)[C@@H]1C3[C@@H]4SC[C@]5(NCCc6c5[nH]c5ccc(OCc7ccccc7)cc65)C(=O)COC[C@@H](c5c6c(c(C)c(OC(C)=O)c54)OCO6)N3[C@@H](O)[C@H](C2)N1C (stereo partly shown) [Compound 29] | 1.59 (≈ 1.39 µg/mL) | > 4.9 | 1.59E−08 | 1.94E−08 | 3.29E−07 | 9 | 29 | 55 | 23.2 | 34.8 | 81.3 | 105 | 69.7 | 23.2 | 34.8 | 92.9 | 116 | 23.2 | 34.8 | 116 | inhibition at 450 min, 10 µM (CYP2D6): 27%; GI50 (A549; [9]): 23.2 nM; GI50 (MB231; MB231, 48 hours exposure, SRB): 23.2 nM; IC (TGI) (MB231; MB231, 48 hours exposure, SRB): 46.5 nM; GI50 (HT29): 23.2 nM; IC (TGI) (HT29): 69.7 nM; CC50 (HT29): 105 nM; GI50 (DU145): 23.2 nM; IC (TGI) (DU145): 34.8 nM; CC50 (DU145): 92.9 nM; CC50 (A498): 116 nM; GI50 (A498): 3.48 nM; IC (TGI) (A498): 11.6 nM; Heart [7]: 7.22E−08; Myelo [8]: 1.79E−08
3 | COc1c(C)cc2c(c1O)[C@@H]1C3[C@@H]4SC[C@]5(NCCc6c5[nH]c5ccc(O)cc65)C(=O)COC[C@@H](c5c6c(c(C)c(OC(C)=O)c54)OCO6)N3[C@@H](O)[C@H](C2)N1C (stereo partly shown) [Compound 31] | 18.3 (≈ 14.3 µg/mL) | 3.61 | 1.89E−08 | 4.27E−08 | 1.35E−08 | 17 | 22 | 84 | 2.59 | 3.89 | 10.4 | 11.7 | 3.89 | 2.59 | 5.19 | 38.9 | 11.7 | 2.59 | 5.19 | 13 | Papp A→B at 2 h, 50 μM (in vitro): < 0.32 ×10⁻⁶ cm/s; GI50 (A549; [9]): 2.59 nM; GI50 (MB231; MB231, 48 hours exposure, SRB): 1.3 nM; IC (TGI) (MB231; MB231, 48 hours exposure, SRB): 5.19 nM; GI50 (HT29): 3.89 nM; IC (TGI) (HT29): 7.78 nM; CC50 (HT29): 13 nM; GI50 (DU145): 1.3 nM; IC (TGI) (DU145): 3.89 nM; CC50 (DU145): 9.08 nM; CC50 (A498): 13 nM; GI50 (A498): 2.59 nM; IC (TGI) (A498): 6.49 nM; Heart [7]: 6.65E−08; Myelo [8]: 3.18E−08
4 | COc1c(C)cc2c(c1O)[C@@H]1C3[C@@H]4SC[C@]5(NCCc6c5[nH]c5cc(F)ccc65)C(=O)COC[C@@H](c5c6c(c(C)c(OC(C)=O)c54)OCO6)N3[C@@H](O)[C@H](C2)N1C (stereo partly shown) [Compound 32] | 14.3 (≈ 11.2 µg/mL) | > 4.3 | 6.00E−07 | 1.45E−07 | 1.51E−08 | 9 | 39 | 83 | 2.59 | 10.3 | 25.9 | 129 | 25.9 | 5.17 | 25.9 | 90.6 | 129 | 9.06 | 25.9 | 90.6 | inhibition at 450 min, 10 µM (CYP2D6): 12%; GI50 (A549): 3.88 nM; GI50 (MB231; MB231, 48 hours exposure, SRB): 2.59 nM; IC (TGI) (MB231; MB231, 48 hours exposure, SRB): 9.06 nM; GI50 (HT29): 7.76 nM; IC (TGI) (HT29): 25.9 nM; CC50 (HT29): 103 nM; GI50 (DU145): 1.29 nM; IC (TGI) (DU145): 2.59 nM; CC50 (DU145): 3.88 nM; CC50 (A498): 51.7 nM; GI50 (A498): 2.59 nM; IC (TGI) (A498): 9.06 nM; Heart [7]: 2.42E−07; Myelo [8]: 5.25E−07
5 | CC(C)NCC(O)COc1cccc2ccccc12 (stereo not shown) [propranolol, reference compound] | – | – | – | – | – | – | – | – | – | – | – | – | – | – | – | – | – | – | – | – | Papp A→B at 2 h, 50 μM (in vitro): > 20 ×10⁻⁶ cm/s
6 | CNC(=C[N+](=O)[O-])NCCSCc1ccc(CN(C)C)o1 [ranitidine, reference compound] | – | – | – | – | – | – | – | – | – | – | – | – | – | – | – | – | – | – | – | – | Papp A→B at 2 h, 50 μM (in vitro): < 5 ×10⁻⁶ cm/s
